Experimental data: patent US9512105B2, “1-substituted 4-arylpiperazine as kappa opioid receptor antagonists” (RESEARCH TRIANGLE INSTITUTE, priority 2011, dated 2016)
Where a name gives a salt, the structure may show the parent alone.

Columns and labels:
[1] = biological target: T1, cloned human μ-opioid receptor (Homo sapiens, UniProt P35372); experiment: Inhibition of DAMGO-stimulated [35S]GTPγS binding; type: biochemical; conditions: antagonism of DAMGO-stimulated [35S]GTPγS binding, cloned human μ receptor; for Kb: read-out: μ, DAMGO Ke
T1 construct: expressed in transfected cells
T1 sequence (P35372 whole entry): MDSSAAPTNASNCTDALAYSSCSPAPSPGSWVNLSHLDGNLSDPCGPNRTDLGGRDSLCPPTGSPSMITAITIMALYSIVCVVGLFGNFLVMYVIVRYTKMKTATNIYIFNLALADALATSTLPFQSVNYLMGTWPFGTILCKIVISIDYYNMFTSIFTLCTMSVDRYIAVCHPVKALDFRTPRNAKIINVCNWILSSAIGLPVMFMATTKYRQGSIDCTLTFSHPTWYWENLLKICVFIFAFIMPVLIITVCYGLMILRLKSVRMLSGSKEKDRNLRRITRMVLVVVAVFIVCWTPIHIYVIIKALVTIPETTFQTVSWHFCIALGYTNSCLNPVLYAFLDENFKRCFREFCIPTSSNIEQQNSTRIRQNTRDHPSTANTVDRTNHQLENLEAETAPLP

[2] = biological target: T2, cloned human δ-opioid receptor (Homo sapiens, UniProt P41143); experiment: Inhibition of DPDPE-stimulated [35S]GTPγS binding; type: biochemical; conditions: antagonism of DPDPE-stimulated [35S]GTPγS binding, cloned human δ receptor; for Kb: read-out: δ, DPDPE Ke
T2 construct: expressed in transfected cells
T2 sequence (P41143 whole entry): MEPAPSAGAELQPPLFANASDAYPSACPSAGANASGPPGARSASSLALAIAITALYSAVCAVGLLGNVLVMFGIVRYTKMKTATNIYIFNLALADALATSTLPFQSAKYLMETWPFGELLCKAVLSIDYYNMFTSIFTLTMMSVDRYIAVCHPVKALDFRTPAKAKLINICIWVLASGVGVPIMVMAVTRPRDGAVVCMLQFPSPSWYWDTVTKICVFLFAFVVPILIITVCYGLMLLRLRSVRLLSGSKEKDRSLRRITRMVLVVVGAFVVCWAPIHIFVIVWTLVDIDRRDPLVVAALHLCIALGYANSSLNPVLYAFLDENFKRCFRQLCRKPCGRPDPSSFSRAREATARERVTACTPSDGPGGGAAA

[3] = biological target: T3, cloned human κ-opioid receptor (Homo sapiens, UniProt P41145); experiment: Inhibition of U69,593-stimulated [35S]GTPγS binding; type: biochemical; conditions: for Kb / κ, U69,593 Ke: antagonism of U69,593-stimulated [35S]GTPγS binding, cloned human κ receptor; for Kb: read-out: κ, U69,593 Ke; for δ/κ / μ/κ: ratio of Ke values; for δ/κ: selectivity for κ relative to δ; for μ/κ: selectivity for κ relative to μ; for efficacy for the κ opioid receptor in words: [35S]GTPγS in vitro functional assay
T3 construct: expressed in transfected cells
T3 sequence (P41145 whole entry): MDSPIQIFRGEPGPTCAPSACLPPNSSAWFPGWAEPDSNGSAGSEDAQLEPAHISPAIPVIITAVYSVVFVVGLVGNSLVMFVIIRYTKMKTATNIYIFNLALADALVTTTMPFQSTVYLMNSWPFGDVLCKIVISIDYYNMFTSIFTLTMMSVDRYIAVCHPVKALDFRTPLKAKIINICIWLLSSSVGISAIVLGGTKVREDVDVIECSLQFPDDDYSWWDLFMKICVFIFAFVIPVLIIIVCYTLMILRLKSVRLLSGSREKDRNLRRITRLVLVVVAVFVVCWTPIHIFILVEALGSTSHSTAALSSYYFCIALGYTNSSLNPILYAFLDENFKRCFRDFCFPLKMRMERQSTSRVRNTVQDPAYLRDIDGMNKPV

SMILES | Kb [1] [nM] | Kb [2] [nM] | Kb [3] [nM] | δ/κ [3] | μ/κ [3] | melting point [°C] | μ, DAMGO Ke [1] [nM] | δ, DPDPE Ke [2] [nM] | efficacy for the κ opioid receptor in words [3] | κ, U69,593 Ke [3] [nM]
COc1cc(Oc2cccc(C)c2)ccc1C(=O)N[C@H](CN1CCN(c2cccc(O)c2)[C@@H](C)C1)C(C)C.Cl.Cl [Compound 19k, N-[(1S)-1-{[(3S)-4-(3-Hydroxyphenyl)-3-methylpiperazin-1-yl]methyl}-2-methylpropyl]-2-methoxy-4-(3-methylphenoxy)benzamide Dihydrochloride] | 49 ± 14 | 63 ± 20 | 1.3 ± 0.03 | 48 | 38 | 99 to 102 | – | – | – | –
COc1ccc(Oc2ccc(C(=O)N[C@H](CN3CCN(c4cccc(O)c4)[C@@H](C)C3)C(C)C)cc2)cc1.Cl.Cl [Compound 6j, N-(1S)-1-{[(3S)-4-(3-Hydroxyphenyl)-3-methylpiperazin-1-yl]methyl}-2-methylpropyl-4-(4-methoxyphenoxy)benzamide Dihydrochloride] | – | – | – | 2305 | 28 | – | 17 ± 5 | 1383 ± 1049 | high efficacy (low Ke values) | 0.60 ± 0.19
CC(C)[C@@H](CN1CCN(c2cccc(O)c2)[C@@H](C)C1)NC(=O)c1ccc(Oc2ccccc2F)cc1.Cl.Cl [Compound 19a, 4-(2-Fluorophenoxy)-N-[(1S)-1-{[(3S)-4-(3-hydroxyphenyl)-3-methylpiperazin-1-yl]methyl}-2-methylpropyl]benzamide Dihydrochloride] | 21.1 ± 4 | 96 ± 18 | 0.76 ± 0.21 | 126 | 28 | 156 to 159 | – | – | high efficacy (low Ke values) | –
Cc1ccc(Oc2ccc(C(=O)N[C@H](CN3CCN(c4cccc(O)c4)[C@@H](C)C3)C(C)C)cc2)cc1.Cl.Cl [Compound 6b, N-(1S)-1-{[(3S)-4-(3-Hydroxyphenyl)-3-methylpiperazin-1-yl]methyl}-2-methylpropyl-4-(4-methylphenoxy)benzamide Dihydrochloride] | – | – | – | 275 | 29 | – | 20 ± 6 | 188 ± 33 | high efficacy (low Ke values) | 0.69 ± 0.25
CC(C)[C@@H](CN1CCN(c2cccc(O)c2)[C@@H](C)C1)NC(=O)c1ccc(Oc2ccccc2O)c(Cl)c1.Cl.Cl [Compound 19n, 3-Chloro-4-(2-hydroxyphenoxy)-N-[(1)-1-{[(3S)-4-(3-hydroxyphenyl)-3-methylpiperazin-1-yl]methyl}-2-methylpropyl]benzamide Dihydrochloride] | – | – | – | 42 | 7 | – | 36 ± 9.2 | 210 ± 82 | – | 5.0 ± 0.82
CC(C)[C@@H](CN1CCN(c2cccc(O)c2)[C@@H](C)C1)NC(=O)c1ccc(Oc2ccccc2)cc1.Cl.Cl [Compound 6a, N-(1S)-1-{[(3S)-4-(3-Hydroxyphenyl)-3-methylpiperazin-1-yl]methyl}-2-methylpropyl-4-phenoxybenzamide Dihydrochloride] | – | – | – | – | – | – | 51 ± 14.9 | 570 ± 79 | high efficacy (low Ke values) | 0.85 ± 0.35
CC(C)[C@@H](CN1CCN(c2cccc(O)c2)[C@@H](C)C1)NC(=O)c1ccc(Oc2ccc(O)cc2)cc1.Cl.Cl [Compound 6g, N-(1S)-1-{[(3S)-4-(3-Hydroxyphenyl)-3-methylpiperazin-1-yl]methyl}-2-methylpropyl-4-(4-hydroxyphenoxy)benzamide Dihydrochloride] | – | – | – | 1.97 | 8 | – | 71 ± 19 | 1696 ± 377 | – | 8.6 ± 3.7
Cc1cccc(Oc2ccc(C(=O)N[C@H](CN3CCN(c4cccc(O)c4)[C@@H](C)C3)C(C)C)cc2)c1.Cl.Cl [Compound 6d, N-(1S)-1-{[(3S)-4-(3-Hydroxyphenyl)-3-methylpiperazin-1-yl]methyl}-2-methylpropyl-4-(3-methylphenoxy)benzamide Dihydrochloride] | – | – | – | – | – | – | 18 ± 6 | 62 ± 20 | high efficacy (low Ke values) | 0.18 ± 0.06
CC(C)[C@@H](CN1CCN(c2cccc(O)c2)[C@@H](C)C1)NC(=O)c1ccc(Oc2cccc(F)c2)cc1.Cl.Cl [Compound 6c, N-(1S)-1-{[(3S)-4-(3-Hydroxyphenyl)-3-methylpiperazin-1-yl]methyl}-2-methylpropyl-4-(3-fluorophenoxy)benzamide Dihydrochloride] | – | – | – | 118 | 16 | – | 30 ± 9.0 | 174 ± 4.5 | – | 1.48 ± 0.51
COc1cccc(Oc2ccc(C(=O)N[C@H](CN3CCN(c4cccc(O)c4)[C@@H](C)C3)C(C)C)cc2)c1.Cl.Cl [Compound 6f, N-(1S)-1-{[(3S)-4-(3-Hydroxyphenyl)-3-methylpiperazin-1-yl]methyl}-2-methylpropyl-4-(3-methoxyphenoxy)benzamide Dihydrochloride] | – | – | – | 2384 | 52 | – | 33 ± 14 | 1502 ± 412 | high efficacy (low Ke values) | 0.63 ± 0.13
Cc1ccc(O)c(Oc2ccc(C(=O)N[C@H](CN3CCN(c4cccc(O)c4)[C@@H](C)C3)C(C)C)cc2)c1.Cl.Cl [Compound 6m, 4-(2-Hydroxy-5-methylphenoxy)-N-[(2S)-1-[(3S)-4-(3-hydroxyphenyl)-3-methylpiperazin-1-yl]-3-methylbutan-2-yl]benzamide Dihydrochloride] | – | – | – | – | – | 179 to 183 | – | – | – | –
CC(C)[C@@H](CN1CCN(c2cccc(O)c2)[C@@H](C)C1)NC(=O)c1ccc(Oc2ccccc2)cn1 [Compound 7a, N-(1S)-1-{[(3S)-4-(3-Hydroxyphenyl)-3-methylpiperazin-1-yl]methyl}-2-methylpropyl]-5-phenoxypyridine-2-carboxamide Trihydrochloride] | 101 ± 16 | 2020 ± 678 | 2.8 ± 1.2 | 723 | 36 | – | – | – | – | –
CC(C)[C@@H](CN1CCN(c2cccc(O)c2)[C@@H](C)C1)NC(=O)c1ccc(Oc2ccccc2O)cc1.Cl.Cl [Compound 6h, N-(1S)-1-{[(3S)-4-(3-Hydroxyphenyl)-3-methylpiperazin-1-yl]methyl}-2-methylpropyl-4-(2-hydroxyphenoxy)benzamide Dihydrochloride] | – | – | – | – | – | – | 125 ± 10 | 960 ± 224 | – | 1.06 ± 0.26
Cc1cc(C(=O)N[C@H](CN2CCN(c3cccc(O)c3)[C@@H](C)C2)C(C)C)ccc1Oc1ccccc1.Cl.Cl [Compound 6k, N-(1S)-1-{[(3S)-4-(3-Hydroxyphenyl)-3-methylpiperazin-1-yl]methyl}-2-methylpropyl-3-methyl-4-phenoxybenzamide Dihydrochloride] | – | – | – | 691 | 24 | – | 15 ± 2 | 435 ± 143 | high efficacy (low Ke values) | 0.63 ± 0.19
COc1ccccc1Oc1ccc(C(=O)N[C@H](CN2CCN(c3cccc(O)c3)[C@@H](C)C2)C(C)C)cc1.Cl.Cl [Compound 6e, N-(1S)-1-{[(3S)-4-(3-Hydroxyphenyl)-3-methylpiperazin-1-yl]methyl}-2-methylpropyl-4-(2-methoxyphenoxy)benzamide Dihydrochloride] | – | – | – | 155 | 25 | – | 127 ± 78 | 869 ± 205 | – | 5.60 ± 1.41
CC(C)[C@@H](CN1CCN(c2cccc(O)c2)[C@@H](C)C1)NC(=O)c1ccc(Oc2cccc(O)c2)cc1.Cl.Cl [Compound 6i, N-(1S)-1-{[(3S)-4-(3-Hydroxyphenyl)-3-methylpiperazin-1-yl]methyl}-2-methylpropyl-4-(3-hydroxyphenoxy)benzamide Dihydrochloride] | – | – | – | 338 | 37 | – | 69 ± 14 | 625 ± 121 | – | 1.85 ± 0.51
